# Test results reported in patent publication US7189720B2 (H. Lundbeck A/S, priority 1999, dated 2007).
# Target: T1, human Y5 receptor (Homo sapiens, UniProt Q15761)
# T1 construct: expressed in transfected cells; host or cells: mouse fibroblast LM(tk-) cells, e.g. L-hY5-7 (ATCC CRL-11995)
# T1 sequence (Q15761 1-445): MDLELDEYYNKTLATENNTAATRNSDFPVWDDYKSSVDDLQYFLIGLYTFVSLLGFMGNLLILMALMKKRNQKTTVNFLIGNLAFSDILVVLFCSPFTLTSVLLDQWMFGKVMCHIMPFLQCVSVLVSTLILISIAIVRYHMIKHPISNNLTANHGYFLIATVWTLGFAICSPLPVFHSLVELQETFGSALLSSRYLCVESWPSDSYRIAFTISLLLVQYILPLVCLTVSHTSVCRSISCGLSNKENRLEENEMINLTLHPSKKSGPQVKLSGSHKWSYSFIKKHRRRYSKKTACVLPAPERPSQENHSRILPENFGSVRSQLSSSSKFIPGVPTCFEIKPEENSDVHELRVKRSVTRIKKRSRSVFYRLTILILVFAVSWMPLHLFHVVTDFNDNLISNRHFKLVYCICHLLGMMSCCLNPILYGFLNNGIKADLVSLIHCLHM
# Test: Radioligand binding to membranes, cloned human Y5 receptor
# Settings: Table 6; read-out: Ki, nM hNPY-5
# Experimental: Binding of the compounds of the present invention to human Y1, Y2, Y4, and Y5 receptors was evaluated using stably transfected 293 or LM(tk-) cells as described above.
# Membranes were harvested from COS-7 cells 48 hours after transient transfection. Adherent cells were washed twice in ice-cold phosphate buffered saline (138 mM NaCl, 8.1 mM Na2HPO4, 2.5 mM KCl, 1.2 mM KH2PO4, 0.9 mM CaCl2, 0.5 mM MgCl2, pH 7.4) and lysed by sonication in ice-cold sonication buffer (20 mM Tris-HCl, 5 mM EDTA, pH 7.7). Large particles and debris were cleared by low speed centrifugation (200×g, 5 min, 4° C.). Membranes were collected from the supernatant fraction by centrifugation (32,000×g, 18 min, 4° C.), washed with ice-cold hypotonic buffer, and collected again by centrifugation (32,000×g, 18 min, 4° C.). The final membrane pellet was resuspended by sonication into a small volume of ice-cold binding buffer (˜1 ml for every 5 plates: 10 mM NaCl, 20 mM HEPES, 0.22 mM KH2PO4, 1.26 mM CaCl2, 0.81 mM MgSO4, pH 7.4). Protein concentration was measured by the Bradford method (Bradford, 1976) using Bio-Rad Reagent, with bovine serum albumin as a standard. Membranes were held on ice for up to one hour and used fresh, or flash-frozen and stored in liquid nitrogen.
# Membranes were prepared similarly from 293, LM(tk-), and NIH-3T3 cells.
# Membrane suspensions were diluted in binding buffer supplemented with 0.1% bovine serum albumin to yield an optimal membrane protein concentration so that ^125I-PYY (or alternative radioligand such as ^125I-NPY, ^125I-NYY3-36, or ^125I-[Leu^31Pro^34]PYY) bound by membranes in the assay was less than 10% of ^125I-PYY (or alternative radioligand) delivered to the sample (100,000 dpm/sample=0.08 nM for competition binding assays). ^125I-PYY (or alternative radioligand) and peptide competitors were also diluted to desired concentrations in supplemented binding buffer. Individual samples were then prepared in 96-well polypropylene microtiter plates by mixing ^125I-PYY (25 μL) (or alternative radioligand), competing peptides or supplemented binding buffer (25 μL), and finally, membrane suspensions (200 μL). Samples were incubated in a 30° C. water bath with constant shaking for 120 min. Incubations were terminated by filtration over Whatman GF/C filters (pre-coated with 1% polyethyleneimine and air-dried before use), followed by washing with 5 mL of ice-cold binding buffer. Filter-trapped membranes were impregnated with MeltiLex solid scintillant (Wallac, Turku, Finland) and counted for ^125I in a Wallac Beta-Plate Reader. Alternatively, incubations were carried out in GF/C filter plates (pre-coated with 1% polyethyleneimine and air-dried before use), followed by vacuum filtration and three washes of 300 μL of ice-cold binding buffer. 50 μL of UltimaGold (Packard) scintillant were added and counted for ^125I, in a Wallac MicroBeta Trilux. Non-specific binding was defined by 300 nM human NPY for all receptors except the Y4 subtypes; 100 nM human PP was used for the human Y4 and 100 nM rat PP for the rat Y4.
row,SMILES,Ki [nM]
1,"O=S(=O)(NCCCCCCNc1nc2c(s1)CCSc1ccccc1-2)c1c(Cl)nc2sccn12 [Example 117, N5-[6-(4,5-Dihydrobenzo[2,3]thiepino[4,5-d][1,3]thiazol-2-ylamino)hexyl]-6-chloroimidazo[2,1-b][1,3]thiazole-5-sulfonamide]",6.6
2,"COc1ccc(C)cc1S(=O)(=O)NC[C@H]1CC[C@H](Nc2nc3c(s2)CCSc2ccccc2-3)CC1 [Example 119, N1-{[4-(4,5-Dihydrobenzo[2,3]thiepino[4,5-d][1,3]thiazol-2-ylamino)cyclohexyl]methyl}-2-methoxy-5-methyl-1-benzenesulfonamide]",14.1
3,"O=S(=O)(NC[C@H]1CC[C@H](Nc2nc3c(s2)CCSc2ccccc2-3)CC1)c1ccc(-c2ccccn2)s1 [Example 120, N2-{[4-(4,5-Dihydrobenzo[2,3]thiepino[4,5-d][1,3]thiazol-2-ylamino)cyclohexyl]methyl}-5-(2-pyridyl)-2-thiophenesulfonamide]",54
4,"O=S(=O)(NC[C@H]1CC[C@H](Nc2nc3c(s2)CCSc2ccccc2-3)CC1)c1cccc2ccccc12 [Example 121, N1-{[4-(4,5-Dihydrobenzo[2,3]thiepino[4,5-d][1,3]thiazol-2-ylamino)cyclohexyl]methyl}-1-naphthalenesulfonamide]",18.4
5,"CN(C)c1cccc2c(S(=O)(=O)NC[C@H]3CC[C@H](Nc4nc5c(s4)CCSc4ccccc4-5)CC3)cccc12 [Example 122, N1-{[4-(4,5-Dihydrobenzo[2,3]thiepino[4,5-d][1,3]thiazol-2-ylamino)cyclohexyl]methyl}-5-(dimethylamino)-1-naphthalenesulfonamide]",27
6,"O=[N+]([O-])c1ccccc1S(=O)(=O)NC[C@H]1CC[C@H](Nc2nc3c(s2)CCSc2ccccc2-3)CC1 [Example 124, N1-{[4-(4,5-Dihydrobenzo[2,3]thiepino[4,5-d][1,3]thiazol-2-ylamino)cyclohexyl]methyl}-2-nitro-1-benzenesulfonamide]",11.5
7,"Cn1cnc(S(=O)(=O)NC[C@H]2CC[C@H](Nc3nc4c(s3)CCSc3ccccc3-4)CC2)c1 [Example 125, N4-{[4-(4,5-Dihydrobenzo[2,3]thiepino[4,5-d][1,3]thiazol-2-ylamino)cyclohexyl]methyl}-1-methyl-1h-4-imidazolesulfonamide]",33
8,"O=S(=O)(NC[C@H]1CC[C@H](Nc2nc3c(s2)CCSc2ccccc2-3)CC1)c1ccc(-c2ccon2)s1 [Example 126, N2-{[4-(4,5-Dihydrobenzo[2,3]thiepino[4,5-d][1,3]thiazol-2-ylamino)cyclohexyl]methyl}-5-(3-isoxazolyl)-2-thiophenesulfonamide]",34
9,"O=S(=O)(NCCCCCCNc1nc2c(s1)CCSc1ccccc1-2)c1ccc(-c2ccon2)s1 [Example 129, N2-[6-(4,5-Dihydrobenzo[2,3]thiepino[4,5-d][1,3]thiazol-2-ylamino)hexyl]-5-(3-isoxazolyl)-2-thiophenesulfonamide]",29
10,"O=S(=O)(NCCCCCNc1nc2c(s1)CCSc1ccccc1-2)c1c(Cl)cccc1Cl [Example 131, N1-[5-(4,5-Dihydrobenzo[2,3]thiepino[4,5-d][1,3]thiazol-2-ylamino)pentyl]-2,6-dichloro-1-benzenesulfonamide]",71
11,"COc1cccc(Br)c1S(=O)(=O)NCCCCCNc1nc2c(s1)CCSc1ccccc1-2 [Example 132, N1-[5-(4,5-Dihydrobenzo[2,3]thiepino[4,5-d][1,3]thiazol-2-ylamino)pentyl]-2-bromo-6-methoxy-1-benzenesulfonamide]",9.7
12,"Cc1cccc(F)c1S(=O)(=O)NCCCCCNc1nc2c(s1)CCSc1ccccc1-2 [Example 134, N1-[5-(4,5-Dihydrobenzo[2,3]thiepino[4,5-d][1,3]thiazol-2-ylamino)pentyl]-2-fluoro-6-methyl-1-benzenesulfonamide]",8.3
13,"Cc1cccc(F)c1S(=O)(=O)NCCCCNc1nc2c(s1)CCSc1ccccc1-2 [Example 135, N1-[4-(4,5-dihydrobenzo[2,3]thiepino[4,5-d][1,3]thiazol-2-ylamino)butyl]-2-fluoro-6-methyl-1-benzenesulfonamide]",110
14,"O=S(=O)(NCCCCNc1nc2c(s1)CCSc1ccccc1-2)c1ccc(F)cc1F [Example 138, N1-[4-(4,5-Dihydrobenzo[2,3]thiepino[4,5-d][1,3]thiazol-2-ylamino)butyl]-2,4-difluoro-1-benzenesulfonamide]",119

# Next, values leading:
row,Ki [nM],SMILES
1,5.4,"COc1ccc(C)cc1S(=O)(=O)NCCCCCCNc1nc2c(s1)CCSc1ccccc1-2 [Example 113, N1-[6-(4,5-Dihydrobenzo[2,3]thiepino[4,5-d][1,3]thiazol-2-ylamino)hexyl]-2-methoxy-5-methyl-1-benzenesulfonamide]"
2,16.6,"O=S(=O)(NCCCCCCNc1nc2c(s1)CCSc1ccccc1-2)c1cccc2ccccc12 [Example 114, N1-[6-(4,5-Dihydrobenzo[2,3]thiepino[4,5-d][1,3]thiazol-2-ylamino)hexyl]-1-naphthalenesulfonamide]"
3,71,"CN(C)c1cccc2c(S(=O)(=O)NCCCCCCNc3nc4c(s3)CCSc3ccccc3-4)cccc12 [Example 115, N1-[6-(4,5-Dihydrobenzo[2,3]thiepino[4,5-d][1,3]thiazol-2-ylamino)hexyl]-5-(dimethylamino)-1-naphthalenesulfonamide]"
4,7.1,"O=[N+]([O-])c1ccccc1S(=O)(=O)NCCCCCCNc1nc2c(s1)CCSc1ccccc1-2 [Example 116, N1-[6-(4,5-Dihydrobenzo[2,3]thiepino[4,5-d][1,3]thiazol-2-ylamino)hexyl]-2-nitro-1-benzenesulfonamide]"
5,161,"CN(C)c1cccc2c(S(=O)(=O)NCCCCCNc3nc4c(s3)CCSc3ccccc3-4)cccc12 [Example 123, N1-[5-(4,5-Dihydrobenzo[2,3]thiepino[4,5-d][1,3]thiazol-2-ylamino)pentyl]-5-(dimethylamino)-1 naphthalenesulfonamide]"
6,17.2,"O=S(=O)(NCCCCCNc1nc2c(s1)CCSc1ccccc1-2)c1cccc2ccccc12 [Example 127, N1-[5-(4,5-Dihydrobenzo[2,3]thiepino[4,5-d][1,3]thiazol-2-ylamino)pentyl]-1-naphthalenesulfonamide]"
7,3.7,"O=S(=O)(NCCCCCNc1nc2c(s1)CCSc1ccccc1-2)c1ccccc1F [Example 128, N1-[5-(4,5-Dihydrobenzo[2,3]thiepino[4,5-d][1,3]thiazol-2-ylamino)pentyl]-2-fluoro-1-benzenesulfonamide]"
8,5.2,"O=[N+]([O-])c1ccccc1S(=O)(=O)NCCCCCNc1nc2c(s1)CCSc1ccccc1-2 [Example 130, N1-[5-(4,5-Dihydrobenzo[2,3]thiepino[4,5-d][1,3]thiazol-2-ylamino)pentyl]-2-nitro-1-benzenesulfonamide]"
9,38,"O=S(=O)(Cc1ccccc1)NCCCCCNc1nc2c(s1)CCSc1ccccc1-2 [Example 133, N-[5-(4,5-dihydrobenzo[2,3]thiepino[4,5-d][1,3]thiazol-2-ylamino)pentyl]phenyl-methanesulfonamide]"
10,6.5,"O=S(=O)(NCCCCCNc1nc2c(s1)CCSc1ccccc1-2)c1ccc(F)cc1F [Example 137, N1-[5-(4,5-Dihydrobenzo[2,3]thiepino[4,5-d][1,3]thiazol-2-ylamino)pentyl]-2,4-difluoro-1-benzenesulfonamide]"
